The source of these data is article PMC11460631, “Inhibition of transient receptor potential vanilloid 3 channels by antimalarial hydroxychloroquine alleviates TRPV3-dependent dermatitis” (The Journal of Biological Chemistry, 2024).

This assay addresses T1, TRPV3 (Homo sapiens, UniProt Q8NET8).
T1 construct: YFP or GFP; expressed in transfected cells; host or cells: HEK293T
T1 sequence (Q8NET8 1-790): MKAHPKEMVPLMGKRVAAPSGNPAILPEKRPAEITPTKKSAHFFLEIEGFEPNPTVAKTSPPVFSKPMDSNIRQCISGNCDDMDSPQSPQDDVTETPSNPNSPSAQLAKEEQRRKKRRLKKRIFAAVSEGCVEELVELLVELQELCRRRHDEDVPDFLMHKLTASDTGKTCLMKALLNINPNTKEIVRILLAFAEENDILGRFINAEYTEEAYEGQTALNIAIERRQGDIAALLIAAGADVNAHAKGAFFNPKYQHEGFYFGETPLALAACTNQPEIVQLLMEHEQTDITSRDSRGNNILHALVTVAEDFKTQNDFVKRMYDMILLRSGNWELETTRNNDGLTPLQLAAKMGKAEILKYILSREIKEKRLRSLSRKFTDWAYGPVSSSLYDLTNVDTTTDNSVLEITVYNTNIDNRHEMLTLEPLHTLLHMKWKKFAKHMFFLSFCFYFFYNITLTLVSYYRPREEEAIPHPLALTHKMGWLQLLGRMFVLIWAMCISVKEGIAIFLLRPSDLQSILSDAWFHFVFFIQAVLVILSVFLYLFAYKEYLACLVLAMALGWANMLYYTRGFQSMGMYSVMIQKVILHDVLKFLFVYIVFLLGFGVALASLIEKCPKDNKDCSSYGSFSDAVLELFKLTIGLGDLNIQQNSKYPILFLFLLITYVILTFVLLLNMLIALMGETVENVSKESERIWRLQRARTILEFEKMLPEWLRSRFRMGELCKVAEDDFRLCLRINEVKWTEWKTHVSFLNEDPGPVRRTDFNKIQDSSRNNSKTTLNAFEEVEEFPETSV
Nature of the assay: Whole-cell patch-clamp recordings of TRPV3 currents in transfected HEK293T cells. Particulars: for IC50: ± 80 mV. The class given is cell-based. The method, then:
HEK293T cells are cultured using Dulbecco's modified Eagle's medium containing 10% fetal bovine serum and 1% penicillin-streptomycin in a cell incubator with 5% CO2 at 37 °C. Plasmids of murine TRPV1, TRPV4, TRPM8, and human TRPV3, TRPA1 are labeled with YFP or GFP as indicators for subsequent electrophysiological recordings. Complementary DNA constructs of ion channels were transiently transfected with Lipofectamine 3000 (Invitrogen). And 12 to 18 h after transient transfection, electrophysiological recordings were performed.
Patch-clamp recordings were carried out with a HEKA EPC10 amplifier controlled by PatchMaster software (HEKA; https://www.heka.com/products/products_main.html#soft_pm) ([36]). Patch pipettes were prepared from borosilicate glass and fire-polished to the resistance of 3 to 8 MΩ by P-97 puller for whole-cell recordings. For single-channel recordings, patch pipettes were fire-polished to a higher resistance of 6 to 10 MΩ. Both bath solution and pipette solution contained 130 mM NaCl, 10 mM glucose, 0.2 mM EDTA, and 3 mM Hepes and were adjusted to pH 7.2 to 7.4 with NaOH. Whole-cell recordings and single-channel recordings were performed at ± 80 mV. The current was sampled at 10 kHz and filtered at 2.9 kHz. All recordings were performed at room temperature (25 °C). A gravity-driven system (RSC-200, Bio-Logic) with freely rotated perfusion tubes was used for the perfusion of ligands. Bath and ligand solutions were delivered through separate tubes to minimize the mixing of solutions. Patch pipette holding cells were placed in front of the perfusion tube outlet for perfusion.
All data from whole-cell recordings were analyzed in Igor Pro (WaveMetrics). IC50 values were determined by fitting the Hill equation to concentration-response relationships. Data are shown as mean ± SEM. Statistical significance between two groups was conducted with an unpaired two-tailed t test, and statistical significance among multiple groups was conducted with one-way ANOVA using Dunnett’s multiple comparisons test or Tukey's post hoc test. Differences were regarded as statistically significant with ∗, p < 0.05; ∗∗, p < 0.01; ∗∗∗, p < 0.001; ∗∗∗∗, and p < 0.0001; N.S., no significance.
In general terms: In patch-clamp work, channel activity is measured electrically.

Read-outs that look alike come from different tables or passages of the source.

The IC50 is the concentration at which inhibition is half-maximal. Usually inhibition stands for the change of the read-out against control, counted positive when it falls. Consider `CCN(CCO)CCCC(C)Nc1ccnc2cc(Cl)ccc12` (stereo not drawn) [HCQ, hydroxychloroquine], for which the 50% inhibitory concentration (IC50) is, setting by setting: (HEK293T cells expressing TRPV3, whole-cell, 1 mM 2-APB, read-out: IC50, inhibition of TRPV3 currents induced by 1 mM 2-APB) 51.7 ± 4.78 µM; (whole-cell, 1 mM carvacrol, read-out: IC50, inhibition of TRPV3 current induced by carvacrol) 1.07 ± 0.38 µM. Besides, the inhibition at 100 µM (HEK-293T, 100 μM HCQ, 1 mM 2-APB, read-out: inhibition of WT TRPV3 channels) is 75.6%.
